From patent US10485236B2, “Triazole derivatives, intermediates thereof and their use as fungicides” (Bayer CropScience Aktiengesellschaft, priority 2015, dated 2019)

Experiments:
[1] = Measurement of LogP values by HPLC on reversed phase columns (EEC directive 79/831 Annex V.A8); type: physicochemical; details: reversed phase HPLC column
In short: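 Calibrated with straight-chain alkan-2-ones (3–16 carbons) of known LogP, using retention times with linear interpolation between successive alkanones. Where one method gives several LogP values, all are listed, joined by "+". Lambda-max taken from UV spectra (200–400 nm) at chromatographic peak maxima.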

Puccinia recondita = experiment: Example B: in vivo preventive test on Puccinia recondita (brown rust on wheat); details: 264 h, 500 ppm of active ingredient, wheat plants, preventive spray, evaluated 11 days after inoculation, read-out: efficacy
Experimental: Example B: In Vivo Preventive Test on Puccinia recondita (Brown Rust on Wheat) [table] The active ingredients are made soluble and homogenized in a mixture of Dimethyl sulfoxide/Acetone//Tween® 80 and then diluted in water to the desired concentration. The young plants of wheat are treated by spraying the active ingredient prepared as described above. Control plants are treated only with an aqueous solution of Acetone/Dimethyl sulfoxide/Tween® 80. After 24 hours, the plants are contaminated by spraying the leaves with an aqueous suspension of Puccinia recondita spores. The contaminated wheat plants are incubated for 24 hours at 20° C. and at 100% relative humidity and then for 10 days at 20° C. and at 70-80% relative humidity. The test is evaluated 11 days after the inoculation. 0% means an efficacy which corresponds to that of the control plants while an efficacy of 100% means that no disease is observed.

Septoria tritici = experiment: Example C: in vivo preventive test on Septoria tritici (leaf spot on wheat); details: Zymoseptoria tritici, 576 h; 500 ppm of active ingredient; wheat plants, preventive spray; evaluated 24 days after inoculation; read-out: efficacy
Experimental: Example C: In Vivo Preventive Test on Septoria tritici (Leaf Spot on Wheat) [table] The active ingredients are made soluble and homogenized in a mixture of Dimethyl sulfoxide/Acetone//Tween® 80 and then diluted in water to the desired concentration. The young plants of wheat are treated by spraying the active ingredient prepared as described above. Control plants are treated only with an aqueous solution of Acetone/Dimethyl sulfoxide/Tween® 80. After 24 hours, the plants are contaminated by spraying the leaves with an aqueous suspension of Septoria tritici spores. The contaminated wheat plants are incubated for 72 hours at 18° C. and at 100% relative humidity and then for 21 days at 20° C. and at 90% relative humidity. The test is evaluated 24 days after the inoculation. 0% means an efficacy which corresponds to that of the control plants while an efficacy of 100% means that no disease is observed.

Sphaerotheca fuliginea = experiment: Example D: in vivo preventive test on Sphaerotheca fuliginea (powdery mildew on cucurbits); details: Podosphaera fuliginea, 360 h; 500 ppm of active ingredient; gherkin plants, preventive spray; evaluated 15 days after inoculation; read-out: efficacy
Experimental: Example D: In Vivo Preventive Test on Sphaerotheca fuliginea (Powdery Mildew on Cucurbits) [table] The active ingredients are made soluble and homogenized in a mixture of Dimethyl sulfoxide/Acetone//Tween® 80 and then diluted in water to the desired concentration. The young plants of gherkin are treated by spraying the active ingredient prepared as described above. Control plants are treated only with an aqueous solution of Acetone/Dimethyl sulfoxide/Tween® 80. After 24 hours, the plants are contaminated by spraying the leaves with an aqueous suspension of Sphaerotheca fuliginea spores. The contaminated gherkin plants are incubated for 72 hours at 18° C. and at 100% relative humidity and then for 12 days at 20° C. and at 70-80% relative humidity. The test is evaluated 15 days after the inoculation. 0% means an efficacy which corresponds to that of the control plants while an efficacy of 100% means that no disease is observed.

Phakopsora pachyrhizi = experiment: Example G: in vivo preventive test on Phakopsora test (soybeans); details: 168 h, 100 ppm of active ingredient, preventive spray, evaluated 7 days after inoculation, read-out: efficacy
Experimental: Example G: In Vivo Preventive Test on Phakopsora Test (Soybeans) [table] To produce a suitable preparation of active compound, 1 part by weight of active compound is mixed with the stated amounts of solvent and emulsifier, and the concentrate is diluted with water to the desired concentration. To test for preventive activity, young plants are sprayed with the preparation of active compound at the stated rate of application. After the spray coating has dried on, the plants are inoculated with an aqueous spore suspension of the causal agent of soybean rust (Phakopsora pachyrhizi) and stay for 24 h without light in an incubation cabinet at approximately 24° C. and a relative atmospheric humidity of 95%. The plants remain in the incubation cabinet at approximately 24° C. and a relative atmospheric humidity of approximately 80% and a day/night interval of 12 h. The test is evaluated 7 days after the inoculation. 0% means an efficacy which corresponds to that of the untreated control, while an efficacy of 100% means that no disease is observed.

Venturia inaequalis = experiment: Example H: in vivo preventive test on Venturia test (apples); details: 240 h, 100 ppm of active ingredient, preventive spray, evaluated 10 days after inoculation, read-out: efficacy
Experimental: Example H: In Vivo Preventive Test on Venturia Test (Apples) [table] To produce a suitable preparation of active compound, 1 part by weight of active compound is mixed with the stated amounts of solvent and emulsifier, and the concentrate is diluted with water to the desired concentration. To test for preventive activity, young plants are sprayed with the preparation of active compound at the stated rate of application. After the spray coating has dried on, the plants are inoculated with an aqueous conidia suspension of the causal agent of apple scab (Venturia inaequalis) and then remain for 1 day in an incubation cabinet at approximately 20° C. and a relative atmospheric humidity of 100%. The plants are then placed in a greenhouse at approximately 21° C. and a relative atmospheric humidity of approximately 90%. The test is evaluated 10 days after the inoculation. 0% means an efficacy which corresponds to that of the untreated control, while an efficacy of 100% means that no disease is observed.

Puccinia triticina = experiment: Example K: in vivo preventive Puccinia triticina test (wheat); details: 192 h, 500 ppm of active ingredient, preventive spray, evaluated 8 days after inoculation, read-out: efficacy
Experimental: Example K: In Vivo Preventive Puccinia Triticina Test (Wheat)
To produce a suitable preparation of active compound, 1 part by weight of active compound or active compound combination is mixed with the stated amounts of solvent and emulsifier, and the concentrate is diluted with water to the desired concentration.
To test for preventive activity, young plants are sprayed with the preparation of active compound or active compound combination at the stated rate of application.
After the spray coating has been dried, the plants are sprayed with a spore suspension of Puccinia triticina. The plants remain for 48 hours in an incubation cabinet at approximately 20° C. and a relative atmospheric humidity of approximately 100%.
The plants are placed in the greenhouse at a temperature of approximately 20° C. and a relative atmospheric humidity of approximately 80%.
The test is evaluated 8 days after the inoculation. 0% means an efficacy which corresponds to that of the untreated control, while an efficacy of 100% means that no disease is observed.

[2] = method [a]: LC-UV, acidic range, 0.1% formic acid in water and acetonitrile as eluent

Row | chromatographic logP [1, 2] | chromatographic logP ([1]; method [b]: LC-UV, neutral range, 0.001 molar ammonium acetate solution in water and acetonitrile as eluent) | chromatographic logP ([1]; method [a], compounds of formula (VII), Table 4) | SMILES | pest or weed control at 500 ppm (Puccinia recondita) [%] | pest or weed control at 500 ppm (Septoria tritici) [%] | pest or weed control at 500 ppm (Sphaerotheca fuliginea) [%] | pest or weed control at 100 ppm (Phakopsora pachyrhizi) [%] | pest or weed control at 100 ppm (Venturia inaequalis) [%] | pest or weed control at 500 ppm (Puccinia triticina) [%]
1 | 2.73 | – | – | Cc1ccc(Oc2ccc(C(O)Cn3cncn3)c(Cl)n2)cc1Cl (stereo not shown) [I.16] | 80 to 89 | 80 to 89 | 90 to 100 | 90 to 100 | 90 to 100 | –
2 | 3.17 | – | – | CC(O)(Cn1cncn1)c1ccc(Oc2ccc(S(F)(F)(F)(F)F)cc2)nc1Cl (stereo not shown) [I.35] | 90 to 100 | 90 to 100 | 90 to 100 | 70 to 79 | 90 to 100 | 90 to 100
3 | 2.41 | – | – | CC(O)(Cn1cncn1)c1ccc(Oc2ccc(C(F)F)cc2)nc1Cl (stereo not shown) [I.39] | 90 to 100 | 90 to 100 | 90 to 100 | 90 to 100 | 80 to 89 | 90 to 100
4 | 2.84 | – | – | C[C@@](O)(Cn1cncn1)c1cnc(Oc2ccc(Cl)cc2)cc1C(F)(F)F [I.45] | 90 to 100 | 90 to 100 | 90 to 100 | 90 to 100 | 90 to 100 | 90 to 100
5 | 3.26 | – | – | OC(Cn1cncn1)(c1ccc(Oc2ccc(Cl)cc2)nc1C(F)(F)F)C1CC1 (stereo not shown) [I.91, 1-[6-(4-chlorophenoxy)-2-(trifluoromethyl)-3-pyridyl]-1-cyclopropyl-2-(1,2,4-triazol-1-yl)ethanol] | 90 to 100 | 90 to 100 | 90 to 100 | 90 to 100 | 90 to 100 | 90 to 100
6 | – | – | 2.92 | O=C(Cn1cncn1)c1ccc(Oc2ccc(Cl)cc2)nc1C(F)(F)F [VII.01, 1-[6-(4-chlorophenoxy)-2-(trifluoromethyl)-3-pyridyl]-2-(1,2,4-triazol-1-yl)ethanone] | 90 to 100 | 80 to 89 | 90 to 100 | 80 to 89 | 90 to 100 | 90 to 100

Continued, molecule first:

Row | SMILES | chromatographic logP [1, 2] | chromatographic logP ([1]; method [b]: LC-UV, neutral range, 0.001 molar ammonium acetate solution in water and acetonitrile as eluent) | chromatographic logP ([1]; method [a], compounds of formula (VII), Table 4) | pest or weed control at 500 ppm (Puccinia recondita) [%] | pest or weed control at 500 ppm (Septoria tritici) [%] | pest or weed control at 500 ppm (Sphaerotheca fuliginea) [%] | pest or weed control at 100 ppm (Phakopsora pachyrhizi) [%] | pest or weed control at 100 ppm (Venturia inaequalis) [%] | pest or weed control at 500 ppm (Puccinia triticina) [%]
7 | CC(O)(Cn1cncn1)c1ccc(Oc2ccc(Cl)cc2)nc1C(F)(F)F (stereo not shown) [I.01, 2-[6-(4-chlorophenoxy)-2-(trifluoromethyl)-3-pyridyl]-1-(1,2,4-triazol-1-yl)propan-2-ol] | 2.88 | – | – | 90 to 100 | 90 to 100 | 90 to 100 | 90 to 100 | 90 to 100 | 90 to 100
8 | CC(O)(Cn1cncn1)c1cnc(Oc2ccc(Cl)cc2)cc1C(F)(F)F (stereo not shown) [I.02, 2-[6-(4-chlorophenoxy)-4-(trifluoromethyl)-3-pyridyl]-1-(1,2,4-triazol-1-yl)propan-2-ol] | 2.9 | – | – | 90 to 100 | 80 to 89 | 90 to 100 | 90 to 100 | 90 to 100 | 90 to 100
9 | OC(Cn1cncn1)c1ccc(Oc2ccc(Cl)cc2)nc1C(F)(F)F (stereo not shown) [I.03, 1-[6-(4-chlorophenoxy)-2-(trifluoromethyl)-3-pyridyl]-2-(1,2,4-triazol-1-yl)ethanol] | 2.7 | – | – | 90 to 100 | 90 to 100 | 90 to 100 | 90 to 100 | 90 to 100 | 90 to 100
10 | CC(O)(Cn1cncn1)c1cnc(Oc2ccccc2)cc1Cl (stereo not shown) [I.05] | 2.1 | 2.06 | – | 90 to 100 | 90 to 100 | 90 to 100 | 90 to 100 | 90 to 100 | 90 to 100
11 | OC(Cn1cncn1)c1ccc(Oc2ccc(Cl)cc2)nc1Cl (stereo not shown) [I.14] | 2.42 | – | – | 90 to 100 | 90 to 100 | 90 to 100 | 90 to 100 | 90 to 100 | 90 to 100
12 | OC(Cn1cncn1)c1cnc(Oc2ccc(S(F)(F)(F)(F)F)cc2)cc1C(F)(F)F (stereo not shown) [I.36] | 3.15 | – | – | 90 to 100 | 80 to 89 | 90 to 100 | 90 to 100 | 90 to 100 | 90 to 100
13 | OC(Cn1cncn1)c1cnc(Oc2ccc(C(F)(F)F)cc2)cc1C(F)(F)F (stereo not shown) [I.47] | 2.84 | – | – | 90 to 100 | 90 to 100 | 90 to 100 | 90 to 100 | 90 to 100 | 90 to 100
